Key:
cAMP-phosphodiesterase = conditions: cited from earlier work
[1] = target: T1, 35 kDa form of (+)-pinoresinol/(+)-lariciresinol reductase (Forsythia intermedia, UniProt P93143); test: Initial velocity studies, reductase 35 kDa isoform; format: biochemical; conditions: 35 kDa form of the enzyme; NADPH 80 μM, pH 7.4, 30° C.
T1 construct: pure enzyme (after MonoQ anion-exchange chromatography); from tissue; host or cells: Forsythia intermedia stems
T1 sequence (P93143 2-312): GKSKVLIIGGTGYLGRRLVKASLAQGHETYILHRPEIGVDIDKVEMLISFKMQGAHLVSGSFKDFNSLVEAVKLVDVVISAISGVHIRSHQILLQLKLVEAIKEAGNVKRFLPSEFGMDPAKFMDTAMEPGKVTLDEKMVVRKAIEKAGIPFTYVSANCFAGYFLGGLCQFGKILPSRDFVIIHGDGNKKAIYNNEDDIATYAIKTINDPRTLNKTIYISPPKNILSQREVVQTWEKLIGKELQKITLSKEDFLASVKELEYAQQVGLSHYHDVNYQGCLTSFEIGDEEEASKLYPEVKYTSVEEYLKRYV
Procedure: (§1) Kinetic Parameters. […] The initial velocity studies were carried out individually utilizing the two isoforms of the enzyme, and individually employing both (+)-pinoresinol and (+)-lariciresinol as substrates. Initial velocity studies were performed in triplicate experiments, using 50 mM Bis-Tris Propane buffer, pH 7.4 containing 5 mM dithiothreitol, pure enzyme (after MonoQ anion-exchange chromatography), ten different substrate concentrations (between 8.8 and 160 μM) at a constant NADPH concentration (80 μM). Incubations were carried out at 30° C. for 10 min (within the linear kinetic range). Kinetic parameters were determined from Lineweaver-Burk plots.

[2] = target: 36 kDa form of (+)-pinoresinol/(+)-lariciresinol reductase (Forsythia x intermedia, UniProt P93143); test: Initial velocity studies, reductase 36 kDa isoform; conditions: 36 kDa form of the enzyme; NADPH 80 μM, pH 7.4, 30° C.
Procedure: as §1

(±)-pinoresinols = test: Substrate specificity of recombinant Thuja plicata reductases expressed in E. coli; format: biochemical; conditions: β-galactosidase fusion in E. coli total protein extract, 3 hour incubation at 30° C.

## COc1cc(C[C@H]2COC(=O)[C@@H]2Cc2ccc(O)c(OC)c2)ccc1O [matairesinol]
cAMP-phosphodiesterase
  cAMP-phosphodiesterase inhibition: inhibit cAMP-phosphodiesterase

## (+)-pinoresinol
[1]
  Km: 27 ± 1.5 µM
  Vmax (apparent maximum velocity): 16.2±0.4 μmol h^−1 mg^−1 of protein
[2]
  Km: 23 ± 1.3 µM
  Vmax (apparent maximum velocity): 17.3±0.5 μmol h^−1 mg^−1 of protein

B1: plr-Tp2: Thuja plicata (+)-pinoresinol/(+)-lariciresinol reductase (SEQ ID NO:64) expressed in E. coli (protein)
chain: MEESSRVLIVGGTGYIGRRIVKASIALGHPTFILFRKEVVSDVEKVEMLLSFKKNGAKLLEASFDDHESLVDAVKQVDVVISAVAGNHMRHHILQQLKLVEAIKEAGNIKRFVPSEFGMDPGLMEHAMAPGNIVFIDKIKVREAIEAASIPHTYISANIFAGYLVGGLAQLGRVMPPSEKVILYGDGNVKAVWVDEDDVGIYTIKAIDDPHTLNKTMYIRPPLNILSQKEVVEKWEKLSGKSLNKINISVEDFLAGMEGQSYGEQIGISHFYQMFYRGDLYNFEIGPNGVEASQLYPEVKYTTVDSYMERYL
(±)-pinoresinols
  substrate specificity: same substrate specificity and product formation as the original Forsythia intermedia reductase

B2: plr-Tp1: Thuja plicata (−)-pinoresinol/(−)-lariciresinol reductase (SEQ ID NO:62) expressed in E. coli (protein)
chain: MDKKSRVLIVGGTGYIGKRIVNASISLGHPTYVLFRPEVVSNIDKVQMLLYFKQLGAKLIEASLDDHQRLVDALKQVDVVISALAGGVLSHHILEQLKLVEAIKEAGNIKRFLPSEFGMDPDIMEHALQPGSITFIDKRKVRRAIEAASIPYTYVSSNMFAGYFAGSLAQLDGHMMPPRDKVLIYGDGNVKGIWVDEDDVGTYTIKSIDDPQTLNKTMYIRPPMNILSQKEVIQIWERLSEQNLDKIYISSQDFLADMKDKSYEEKIVRCHLYQIFFRGDLYNFEIGPNAIEATKLYPEVKYVTMDSYLERYV
(±)-pinoresinols
  substrate specificity: can use both (−)-pinoresinol and (+)-pinoresinol as substrates
